Source: the NIST ThermoML archive (doi:10.1016/j.jct.2013.10.031)

Conditions: for vapor or sublimation pressure: Liquid, Closed cell (Static) method; for mass density: Gas, Burnett expansion method

CCC [propane]
Conditions | vapor or sublimation pressure [kPa]
252.1 K | 236
256.21 K | 273.3
260.1 K | 311.1
264.21 K | 358.7
268.09 K | 406
272.13 K | 460.2
276.14 K | 519.7
280.21 K | 585.8
284.09 K | 653.2
288.1 K | 731.4
292.1 K | 814.2
296.21 K | 906.2
300.18 K | 1001.8
304.19 K | 1107.5
308.18 K | 1219.8
312.17 K | 1339.6
316.2 K | 1468.9
320.19 K | 1606.7

N#N [nitrogen]
mass density [kg/m3]
Conditions | 634.95 kPa | 845.67 kPa | 1127.1 kPa | 1502.9 kPa | 2004.5 kPa
322.97 K | – | 8.818 | 11.749 | – | 20.889
322.98 K | 6.619 | – | – | 15.668 | –

FCC(F)(F)F [1,1,1,2-tetrafluoroethane]
Conditions | vapor or sublimation pressure [kPa]
252.12 K | 127.2
256.18 K | 151.4
260.19 K | 178.5
264.2 K | 209.6
268.21 K | 244.3
272.14 K | 283
276.09 K | 326.1
280.13 K | 374.9
284.1 K | 428.7
288.09 K | 487
292.13 K | 554.1
296.32 K | 630.3
300.17 K | 707.1
304.12 K | 792.4
308.12 K | 887
312.19 K | 991.8
316.2 K | 1103.5
320.09 K | 1220.6
